Test results from patent publication US12077503B2, “Substituted cyclic amides and their use as herbicides” (FMC CORPORATION, priority 2015, dated 2024).

What was measured:
Format in all cases: in vivo
[1] = tested on: giant foxtail (Setaria faberi); assay: Test G Pre-Emergence Protocol; details: Setaria faberi, pre-emergence, 312 h, evaluated after 13 days; for pest or weed control at 15.625 g/ha: 15.625 g ai/ha; for pest or weed control at 15.625 g/ha / pest or weed control at 250 g/ha: read-out: Foxtail, Giant damage rating (100=total damage to plant; 0=no damage to plant); for pest or weed control at 62.5 g/ha: 62.5 g ai/ha, 100=total damage to plant, 0=no damage to plant, read-out: Foxtail, Giant damage rating; for pest or weed control at 250 g/ha: 250 g ai/ha
In short: (§1)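 Scores are visual damage ratings from 0 (no damage) to 100 (total plant kill), taken 13 days after treatment. Compound was sprayed one day post-sowing at 15.625, 62.5 or 250 g/ha in 50:50 acetone/water with 0.5% Tween 20.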

[2] = tested on: velvetleaf (Abutilon theophrasti); assay: Test G Pre-Emergence Protocol; details: Abutilon theophrasti, pre-emergence, 312 h, evaluated after 13 days; for pest or weed control at 15.625 g/ha: 15.625 g ai/ha; for pest or weed control at 15.625 g/ha / pest or weed control at 250 g/ha: read-out: Velvetleaf damage rating (100=total damage to plant; 0=no damage to plant); for pest or weed control at 62.5 g/ha: 62.5 g ai/ha, 100=total damage to plant, 0=no damage to plant, read-out: Velvetleaf damage rating; for pest or weed control at 250 g/ha: 250 g ai/ha
In short: as §1

[3] = tested on: barnyardgrass (Echinochloa crus-galli); assay: Test G Pre-Emergence Protocol; details: Echinochloa crus-galli, pre-emergence, 312 h, evaluated after 13 days; for pest or weed control at 15.625 g/ha: 15.625 g ai/ha; for pest or weed control at 15.625 g/ha / pest or weed control at 250 g/ha: read-out: Barnyardgrass damage rating (100=total damage to plant; 0=no damage to plant); for pest or weed control at 62.5 g/ha: 62.5 g ai/ha, 100=total damage to plant, 0=no damage to plant, read-out: Barnyardgrass damage rating; for pest or weed control at 250 g/ha: 250 g ai/ha
In short: as §1

[4] = tested on: redroot pigweed (Amaranthus retroflexus); assay: Test G Pre-Emergence Protocol; details: Amaranthus retroflexus, pre-emergence, 312 h, evaluated after 13 days; for pest or weed control at 15.625 g/ha: 15.625 g ai/ha; for pest or weed control at 15.625 g/ha / pest or weed control at 250 g/ha: read-out: Pigweed, Redroot damage rating (100=total damage to plant; 0=no damage to plant); for pest or weed control at 62.5 g/ha: 62.5 g ai/ha, 100=total damage to plant, 0=no damage to plant, read-out: Pigweed, Redroot damage rating; for pest or weed control at 250 g/ha: 250 g ai/ha
In short: as §1

[5] = tested on: ivy-leaved morning glory (Ipomoea hederacea); assay: Test G Pre-Emergence Protocol; details: Ipomoea, pre-emergence, 312 h, evaluated after 13 days; for pest or weed control at 15.625 g/ha: 15.625 g ai/ha; for pest or weed control at 15.625 g/ha / pest or weed control at 250 g/ha: read-out: Morningglory, Ivy-leaved damage rating (100=total damage to plant; 0=no damage to plant); for pest or weed control at 250 g/ha: 250 g ai/ha; for pest or weed control at 62.5 g/ha: 62.5 g ai/ha, 100=total damage to plant, 0=no damage to plant, read-out: Morningglory, Ivy-leaved damage rating
In short: as §1

[6] = tested on: corn (Zea mays); assay: Test G Pre-Emergence Protocol; details: Zea mays, pre-emergence, 312 h, evaluated after 13 days; for plant injury at 15.625 g/ha: 15.625 g ai/ha; for plant injury at 15.625 g/ha / plant injury at 250 g/ha: read-out: Corn damage rating (100=total damage to plant; 0=no damage to plant); for plant injury at 62.5 g/ha: 62.5 g ai/ha, 100=total damage to plant, 0=no damage to plant, read-out: Corn damage rating; for plant injury at 250 g/ha: 250 g ai/ha
In short: as §1

[7] = tested on: giant foxtail (Setaria faberi); assay: Test G Post-Emergence Protocol; details: Setaria faberi, post-emergence, 312 h, read-out: Foxtail, Giant damage rating; for pest or weed control at 15.625 g/ha: 15.625 g ai/ha, evaluated after 13 days (100=total damage to plant; 0=no damage to plant); for pest or weed control at 62.5 g/ha: 62.5 g ai/ha; for pest or weed control at 62.5 g/ha / pest or weed control at 250 g/ha: evaluated after 13 days, 100=total damage to plant, 0=no damage to plant; for pest or weed control at 250 g/ha: 250 g ai/ha
In short: (§2)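 Sow in soil; grow 8 d (24/16 °C, 14 h light, 65% humidity); spray 15.625/62.5/250 g/ha in acetone:water 50:50 + 0.5% Tween 20; grow on, water twice daily; score damage 0–100 at 13 d.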

[8] = tested on: velvetleaf (Abutilon theophrasti); assay: Test G Post-Emergence Protocol; details: Abutilon theophrasti, post-emergence, 312 h, read-out: Velvetleaf damage rating; for pest or weed control at 15.625 g/ha: 15.625 g ai/ha, evaluated after 13 days (100=total damage to plant; 0=no damage to plant); for pest or weed control at 62.5 g/ha: 62.5 g ai/ha; for pest or weed control at 62.5 g/ha / pest or weed control at 250 g/ha: evaluated after 13 days, 100=total damage to plant, 0=no damage to plant; for pest or weed control at 250 g/ha: 250 g ai/ha
In short: as §2

[9] = tested on: barnyardgrass (Echinochloa crus-galli); assay: Test G Post-Emergence Protocol; details: Echinochloa crus-galli, post-emergence, 312 h, read-out: Barnyardgrass damage rating; for pest or weed control at 15.625 g/ha: 15.625 g ai/ha, evaluated after 13 days (100=total damage to plant; 0=no damage to plant); for pest or weed control at 62.5 g/ha: 62.5 g ai/ha; for pest or weed control at 62.5 g/ha / pest or weed control at 250 g/ha: evaluated after 13 days, 100=total damage to plant, 0=no damage to plant; for pest or weed control at 250 g/ha: 250 g ai/ha
In short: as §2

[10] = tested on: redroot pigweed (Amaranthus retroflexus); assay: Test G Post-Emergence Protocol; details: Amaranthus retroflexus, post-emergence, 312 h, read-out: Pigweed, Redroot damage rating; for pest or weed control at 15.625 g/ha: 15.625 g ai/ha, evaluated after 13 days (100=total damage to plant; 0=no damage to plant); for pest or weed control at 62.5 g/ha: 62.5 g ai/ha; for pest or weed control at 62.5 g/ha / pest or weed control at 250 g/ha: evaluated after 13 days, 100=total damage to plant, 0=no damage to plant; for pest or weed control at 250 g/ha: 250 g ai/ha
In short: as §2

[11] = tested on: ivy-leaved morning glory (Ipomoea hederacea); assay: Test G Post-Emergence Protocol; details: Ipomoea, post-emergence, 312 h, read-out: Morningglory, Ivy-leaved damage rating; for pest or weed control at 15.625 g/ha: 15.625 g ai/ha, evaluated after 13 days (100=total damage to plant; 0=no damage to plant); for pest or weed control at 62.5 g/ha: 62.5 g ai/ha; for pest or weed control at 62.5 g/ha / pest or weed control at 250 g/ha: evaluated after 13 days, 100=total damage to plant, 0=no damage to plant; for pest or weed control at 250 g/ha: 250 g ai/ha
In short: as §2

[12] = tested on: corn (Zea mays); assay: Test G Post-Emergence Protocol; details: Zea mays, post-emergence, 312 h, read-out: Corn damage rating; for plant injury at 15.625 g/ha: 15.625 g ai/ha, evaluated after 13 days (100=total damage to plant; 0=no damage to plant); for plant injury at 62.5 g/ha: 62.5 g ai/ha; for plant injury at 62.5 g/ha / plant injury at 250 g/ha: evaluated after 13 days, 100=total damage to plant, 0=no damage to plant; for plant injury at 250 g/ha: 250 g ai/ha
In short: as §2

Compound	pest or weed control at 15.625 g/ha [1] [%]	pest or weed control at 62.5 g/ha [1] [%]	pest or weed control at 250 g/ha [1] [%]	pest or weed control at 15.625 g/ha [2] [%]	pest or weed control at 62.5 g/ha [2] [%]	pest or weed control at 250 g/ha [2] [%]	pest or weed control at 15.625 g/ha [3] [%]	pest or weed control at 62.5 g/ha [3] [%]	pest or weed control at 250 g/ha [3] [%]	pest or weed control at 15.625 g/ha [4] [%]	pest or weed control at 62.5 g/ha [4] [%]	pest or weed control at 250 g/ha [4] [%]	pest or weed control at 15.625 g/ha [5] [%]	pest or weed control at 250 g/ha [5] [%]	plant injury at 15.625 g/ha [6] [%]	plant injury at 62.5 g/ha [6] [%]	plant injury at 250 g/ha [6] [%]	pest or weed control at 15.625 g/ha [7] [%]	pest or weed control at 62.5 g/ha [7] [%]	pest or weed control at 250 g/ha [7] [%]	also measured
CN1C[C@H](c2cc(C(C)(C)C)ncn2)[C@@H](C(=O)Nc2cccc(F)c2F)C1=O (racemic) [Compound 1667]	0	10	20	0	0	0	0	10	20	0	0	0	0	30	0	0	0	0	0	20	pest or weed control at 15.625 g/ha [8]: 0%; pest or weed control at 62.5 g/ha [8]: 0%; pest or weed control at 250 g/ha [8]: 0%; pest or weed control at 15.625 g/ha [9]: 0%; pest or weed control at 62.5 g/ha [9]: 0%; pest or weed control at 250 g/ha [9]: 10%; pest or weed control at 15.625 g/ha [10]: 0%; pest or weed control at 62.5 g/ha [10]: 0%; pest or weed control at 250 g/ha [10]: 0%; pest or weed control at 15.625 g/ha [11]: 0%; pest or weed control at 62.5 g/ha [11]: 0%; pest or weed control at 250 g/ha [11]: 0%; plant injury at 15.625 g/ha [12]: 0%; plant injury at 62.5 g/ha [12]: 0%; plant injury at 250 g/ha [12]: 0%
COC(=O)c1cc([C@H]2CN(C)C(=O)[C@@H]2C(=O)Nc2cccc(F)c2F)ccc1F (racemic) [Compound 1678]	0	0	0	0	0	0	0	0	0	0	0	0	0	0	0	0	0	0	10	20	pest or weed control at 62.5 g/ha [5]: 0%; pest or weed control at 15.625 g/ha [8]: 0%; pest or weed control at 62.5 g/ha [8]: 0%; pest or weed control at 250 g/ha [8]: 0%; pest or weed control at 15.625 g/ha [9]: 0%; pest or weed control at 62.5 g/ha [9]: 10%; pest or weed control at 250 g/ha [9]: 30%; pest or weed control at 15.625 g/ha [10]: 10%; pest or weed control at 62.5 g/ha [10]: 10%; pest or weed control at 250 g/ha [10]: 30%; pest or weed control at 15.625 g/ha [11]: 0%; pest or weed control at 62.5 g/ha [11]: 0%; pest or weed control at 250 g/ha [11]: 0%; plant injury at 15.625 g/ha [12]: 0%; plant injury at 62.5 g/ha [12]: 0%; plant injury at 250 g/ha [12]: 0%
Cc1cc(C)cc([C@H]2CN(C)C(=O)[C@@H]2C(=O)Nc2ccccc2S(C)(=O)=O)c1 (racemic) [Compound 1727]	50	60	80	0	0	0	30	40	80	0	0	30	0	10	0	0	0	30	80	80	pest or weed control at 62.5 g/ha [5]: 0%; pest or weed control at 15.625 g/ha [8]: 0%; pest or weed control at 62.5 g/ha [8]: 0%; pest or weed control at 250 g/ha [8]: 10%; pest or weed control at 15.625 g/ha [9]: 20%; pest or weed control at 62.5 g/ha [9]: 70%; pest or weed control at 250 g/ha [9]: 70%; pest or weed control at 15.625 g/ha [10]: 0%; pest or weed control at 62.5 g/ha [10]: 0%; pest or weed control at 250 g/ha [10]: 0%; pest or weed control at 15.625 g/ha [11]: 0%; pest or weed control at 62.5 g/ha [11]: 30%; pest or weed control at 250 g/ha [11]: 50%; plant injury at 15.625 g/ha [12]: 0%; plant injury at 62.5 g/ha [12]: 0%; plant injury at 250 g/ha [12]: 10%
